# Reference: patent publication US20200000840A1, “USE OF CYCLODEXTRINS TO REDUCE ENDOCYTOSIS IN MALIGNANT AND NEURODEGENERATIVE DISORDERS” (priority 2016, published 2020)
# “And” between values parts separate entries of the source, which are not always exact repeats. Equal entries are not always repeated. “Also recorded” adds a separate entry of the source. Where two headings read alike, the source gives them in different places. Marks after values point to notes of the source that are not given here.
# How the values were obtained:
# MCF-7 cells = assay: Wound healing / gap closure migration assay (CytoSelect CBA-120); assay type: cell-based, human; details: treated 2 hours
# Procedure: (§1) Published results have shown that β-CD inhibits human MDA-MB 231 cell migration (Guerra et al. 2016). This inhibition was attributed to the ability of β-CD to “deplete cholesterol”. β-CD, however, depletes also phospholipids. […] Cells were cultured in 24-well culture plates (Cytoselect CBA-120, 0.9 mm wound healing/gap closure migration assay) for 24 hours with wound healing insert in place. […] Protocol: Warm up the 24-well plate (CBA-120, Cell BioLabs Inc.) with 0.9 mm CytoSelect Wound Healing Inserts at room temperature for 10 minutes. Using sterile forceps, orient the desired number of inserts in the plate wells with their “wound field” aligned in the same direction. Create a cell suspension containing 0.5-1.0×10^6 cells/ml in media containing 10% fetal bovine serum (FBS). Add 500 μL of cell suspension to each well by carefully inserting the pipette tip through the open end at the top of the insert. For optimal cell dispersion, add 250 μL of cell suspension to either side of the open ends at the top of the insert. Incubate cells in a cell culture incubator for 12-24 hours. Carefully remove the insert from the well to begin the wound healing assay. Use sterile forceps to grab and lift the insert slowly from the plate well. Slowly aspirate and discard the media from the wells. Wash wells with media to remove dead cells and debris. Finally, add media to wells to keep cells hydrated. Repeat wash if wells still have debris or unattached cells. When washing is complete, add media with FBS and/or compounds to continue cell culture and wound healing process. Agents that inhibit or stimulate cell migration can be added directly to the wells. Incubate cells in a cell culture incubator (2 hours) and then wash cells with PBS and then add fresh media without compounds. Incubate 12-24 hours before wash and fixing. Remove the fixation solution and add 400 μL of Cell Stain Solution to each well. Allow the stain to incubate with the cells for 15 minutes at room temperature. Aspirate and discard the solution. Carefully wash each stained well 3× with deionized water. Discard washes and allow cells to dry at room temperature. Cells that migrated into the wounded area or protruded from the border of the wound were visualized and photographed under an inverted microscope. Determine the surface area of the defined wound area: Total Surface Area=0.9 mm x length. Determine the surface area of the migrated cells into the wound area: Migrated Cell Surface Area=length of cell migration (mm)×2 x length. Percent Closure (%)=Migrated Cell Surface Area/Total Surface Area x 100.
# MDA-MB-231 cells = assay: as above; assay type: cell-based, human; details: treated 2 hours
# Procedure: as §1
# [1] = system: MDA-MB 231 and MCF-7 human breast epithelial cell lines; assay: Wound healing assay, overall statements for both cell lines; assay type: cell-based; details: 1-4 mM
# Procedure: as §1
# [2] = Table 2; cited from earlier work
# [3] = cited from earlier work
# [4] = in vivo; cited from earlier work
# BBB = details: cited from earlier work; for Transport across BBB: 2 h
# children with NPC = details: cited from earlier work
# human keratinocytes = details: cited from earlier work
# cats = details: doses of 4-8 g/kg; cited from earlier work
# mice, cats, one human = details: cats, and one human; cited from earlier work
# rats [5] = details: long-term parenteral administration, 200 mg/kg; cited from earlier work
# renal cancer cells = details: triple combination treatment, mice implanted with renal cancer cells; cited from earlier work
# leukemia mouse models = details: cited from earlier work
# [6] = system: transgenic mouse model of AD; details: cited from earlier work
# rats [7] = details: cited from earlier work
# rats [8] = details: rat, in vivo; cited from earlier work
# rats [9] = details: cited from earlier work; remark: listed apart in the source
# [10] = cited from earlier work; remark: listed apart in the source
# transferrin endocytosis = details: 10 mM; cited from earlier work
# erythrocytes = details: cited from earlier work
# human erythrocytes = details: cited from earlier work
# animal studies = details: cited from earlier work
# [11] = parenteral delivery; cited from earlier work
# [12] = parenteral administration; cited from earlier work
# [13] = cyclosporine eye-drops; cited from earlier work
# rats [14] = details: rat, in vivo, cited from earlier work
# rats [15] = details: 1.000 g/kg daily; cited from earlier work
smiles,measurement,setting,value
"CC(O)COC[C@H]1O[C@@H]2O[C@H]3[C@H](O)[C@@H](O)[C@@H](O[C@H]4[C@H](O)[C@@H](O)[C@@H](O[C@H]5[C@H](O)[C@@H](O)[C@@H](O[C@H]6[C@H](O)[C@@H](O)[C@@H](O[C@H]7[C@H](O)[C@@H](O)[C@@H](O[C@H]8[C@H](O)[C@@H](O)[C@@H](O[C@H]1[C@H](O)[C@H]2O)O[C@@H]8COCC(C)O)O[C@@H]7COCC(C)O)O[C@@H]6COCC(C)O)O[C@@H]5COCC(C)O)O[C@@H]4COCC(C)O)O[C@@H]3COCC(C)O (stereo partly drawn) [HPbCD, hydroxypropyl-beta-cyclodextrin]",average wound closure,MCF-7 cells; 1 mM,73.33%
same,"wound closure (Percent Closure), replications r1-r3",MCF-7 cells; 1 mM,68.00% and 74.00% and 78.00%
same,average wound closure,MCF-7 cells; 2 mM,48.33%
same,"wound closure (Percent Closure), replications r1-r3",MCF-7 cells; 2 mM,41.00% and 48.00% and 56.00%
same,average wound closure,MCF-7 cells; 4 mM,33.67%
same,"wound closure (Percent Closure), replications r1-r3",MCF-7 cells; 4 mM,32.00% and 28.00% and 41.00%
same,average wound closure,MDA-MB-231 cells; 1 mM,67.67%
same,"wound closure (Percent Closure), replications r1-r3",MDA-MB-231 cells; 1 mM,62.00% and 68.00% and 73.00%
same,average wound closure,MDA-MB-231 cells; 2 mM,56.00%
same,"wound closure (Percent Closure), replications r1-r3",MDA-MB-231 cells; 2 mM,48.00% and 59.00% and 61.00%
same,average wound closure,MDA-MB-231 cells; 4 mM,39.00%
same,"wound closure (Percent Closure), replications r1-r3",MDA-MB-231 cells; 4 mM,48.00% and 44.00% and 25.00%
same,migration versus concentration,[1],migration decreased with higher concentration
same,Solubility in water,[2],>600 mg/mL
same,oral absorption in rats,[3],≤3%
same,Vol. of distribution (VD),[4],0.2 L/kg
same,half-life (t1/2),[4],1.7 to 1.9 h
same,BBB breakdown,BBB,2.5 mM
same,side effects,"children with NPC; about 2500 mg/kg bi-weekly, over a year, two children with NPC",no discernable side effects
same,tolerability,"children with NPC; children with NPC, doses of up to 1000 mg/kg/d",well tolerated
same,hearing,children with NPC; steady state IV doses of 2.5 g/kg bi-weekly for >1 yr,Hearing unaffected despite receiving steady state IV doses of
same,apoptotic cell death,human keratinocytes,not apoptotic
same,hearing loss,cats,permanent hearing loss
same,hearing loss,"mice, cats, one human",risk of causing permanent hearing loss
same,bone mineral density (BMD),rats [5],decrease bone mineral density
same,tumor regression,renal cancer cells,necessary in triple combination treatment for tumor regression
same,survival,leukemia mouse models,prolonged survival
same,neuroprotection,[6],neuroprotective effects
same,acute i.v. toxicity in rats,rats [7],10 g/kg
same,toxic effects at 1 g/kg,rats [8],did not cause adverse clinical signs
"OC[C@H]1O[C@@H]2O[C@H]3[C@H](O)[C@@H](O)[C@@H](O[C@H]4[C@H](O)[C@@H](O)[C@@H](O[C@H]5[C@H](O)[C@@H](O)[C@@H](O[C@H]6[C@H](O)[C@@H](O)[C@@H](O[C@H]7[C@H](O)[C@@H](O)[C@@H](O[C@H]1[C@H](O)[C@H]2O)O[C@@H]7CO)O[C@@H]6CO)O[C@@H]5CO)O[C@@H]4CO)O[C@@H]3CO [α-cyclodextrin, alpha-cyclodextrin]","nephrosis, single dose s.c.",rats [9]; 0.100 g/kg,0.100 no changes
same,"nephrosis, single dose s.c.",rats [9]; 1.000 g/kg,1.000 changes seen
same,Solubility in water,[2],130 to 145 mg/mL
same,oral absorption in rats,[3],2-3%
same,"i.v. toxicity, 1 g daily",[10],1 died after 2 d
same,Transport across BBB,BBB; 0.5 mM,21.5%
same,Transport across BBB,BBB; 1 mM,16.5%
same,BBB breakdown,BBB,1 mM
same,"toxicity in the BBB model, comparison of CDs",BBB,most toxic among the three native CDs
same,reduction of transferrin endocytosis,transferrin endocytosis,20%
same,phospholipids released,erythrocytes; 10 mM,30%
same,release of phospholipids on increasing concentration,erythrocytes; above 10 mM,does not increase release of phospholipids
same,cholesterol extraction,erythrocytes,negligible even at hemolytic concentrations
same,tolerance by human erythrocytes,human erythrocytes,better then β-CD
same,hemolytic activity,"human erythrocytes; human erythrocytes, listed as α-CD",β-CD>α-CD>γ-CD; also recorded: lower than that of both β-CD and HP-β-CD
same,apoptotic cell death,human keratinocytes,not apoptotic
same,ototoxicity,animal studies,did not show ototoxicity
same,excretion,[11],excreted almost completely in an intact form into the urine
same,renal toxicity,[12],showed renal toxicity
same,tolerability in eye-drops,[13],well tolerated
same,single dose i.v. LD50,rats [14]; iv,0.788/1.008 * g/kg
same,LD50,rats [14],1008 mg/kg
same,"nephrosis, 1, 2, 3, 4, or 7 daily doses s.c.",rats [15],1.000 severe nephrosis
same,acute i.v. toxicity in rats,rats [7],0.5 to 0.8 g/kg
